The values that follow come from US20100086587A1, “HARD SHELL CAPSULE FORMULATIONS” (priority 2006, published 2010).

A short description of the data set: Moisture loss or gain of filled capsules exposed to a 50% RH environment until equilibrium. The data set is classed as physicochemical. To be noted: 50% R.H. environment. Here is the method: An alternative method for evaluating the level of water required to provide a stable hygroscopic formulation involves the preparation of capsules containing different water contents and then quantifying moisture loss or gain when exposed to a 50% RH environment (middle of acceptable RH range for capsules 35% RH to 65% RH). Maltitol, a sugar which is also a hygroscopic excipient, was dissolved in water to produce several aqueous maltitol solutions of concentration 16, 18, 20, 22, 24, 26, 28, 30, 32, 34 and 36% water in maltitol. Both gelatin and HPMC capsules were filled with the various concentrations of solution and the capsules were sealed by banding. The capsules were then exposed to a 50% R.H environment and allowed the capsules to re-equilibrate.
Weight loss (and water loss) ceased when the capsules shell content was in equilibrium with the capsule shell and with the 50% R.H. environment. The equilibrium water content in maltitol that produced stables capsules was approximately 14% water content for gelatin capsules and approximately 13% water content for HPMC capsules.

For the molecule `OC[C@@H](O)[C@@H](O[C@H]1O[C@H](CO)[C@@H](O)[C@H](O)[C@H]1O)[C@H](O)[C@@H](O)CO` [maltitol, Maltitol], the “equilibrium water content in maltitol that produced stable capsules” value is “approximately 13%” (HPMC capsules) and “approximately 14%” (gelatin capsules).
